Patent EP0947515A1, “NOVEL NAPHTHYRIDINE DERIVATIVES” (SUMITOMO PHARMACEUTICALS COMPANY, LIMITED, priority 1996, dated 1998)

Key:
[1] = system: ACAT; assay: Assay of ACAT inhibitory activity in a specimen prepared from rabbit liver; format: biochemical, New Zealand white rabbit; details: enzyme specimen from liver of cholesterol-fed rabbit, [1-14C]oleoyl-CoA and endogenous cholesterol, 0.1 µM
Experimental: 1. Assay of ACAT inhibitory activity in a specimen prepared from rabbit liver
An enzyme specimen ACAT was prepared according to the method disclosed in the literature: J. Lipid. Research, 30, 681-690, 1989, from the liver of New Zealand white rabbit, which had been fed with 1 % cholesterol feed for one month. The ACAT activity was determined according to the method disclosed in the literature: J. Lipid Research, 24, 1127-1134, 1983, i.e., using radioactive [1-14C]oleoyl-CoA and endogenous cholesterol contained in the liver microsome, and calculated from the radioactivity of the labeled cholesterol oleate.

[2] = molecular target: T1, ACAT (Rattus norvegicus, UniProt O70536); assay: Assay of ACAT inhibitory activity in the macrophage derived from rat peritoneal; format: cell-based; details: 10^-7 M, radioactive oleic acid and exogenous cholesterol in liposome, read-out: ACAT inhibitory rate (%) 10^-7 M
T1 construct: The rat peritoneal-derived macrophage was prepared; endogenous in cells; host or cells: rat peritoneal macrophages (primary)
T1 sequence (O70536 1-545): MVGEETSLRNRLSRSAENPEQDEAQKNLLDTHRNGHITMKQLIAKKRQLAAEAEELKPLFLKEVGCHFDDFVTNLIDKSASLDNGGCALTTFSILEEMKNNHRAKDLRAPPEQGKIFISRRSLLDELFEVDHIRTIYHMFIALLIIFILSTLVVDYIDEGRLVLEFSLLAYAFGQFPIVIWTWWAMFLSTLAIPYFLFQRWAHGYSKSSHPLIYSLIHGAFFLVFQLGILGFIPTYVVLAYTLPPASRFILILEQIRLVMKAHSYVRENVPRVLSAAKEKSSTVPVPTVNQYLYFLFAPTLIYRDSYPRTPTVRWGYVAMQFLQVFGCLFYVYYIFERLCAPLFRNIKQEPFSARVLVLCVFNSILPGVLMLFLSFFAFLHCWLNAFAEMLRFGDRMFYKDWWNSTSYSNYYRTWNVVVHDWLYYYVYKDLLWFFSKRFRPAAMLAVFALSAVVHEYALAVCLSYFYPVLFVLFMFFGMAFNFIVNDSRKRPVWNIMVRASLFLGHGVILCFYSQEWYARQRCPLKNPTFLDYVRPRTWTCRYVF
Experimental: 2. Assay of ACAT inhibitory activity in the macrophage derived from rat peritoneal
The rat peritoneal-derived macrophage was prepared according to the method disclosed in the literature: Biochimica et Biophysica Acta, 1126, 73-80, 1992. The ACAT activity was determined by a modified method of the method disclosed in the above literature: Biochimica et Biophysica Acta, 1126, 73-80, 1992, i.e., using radioactive [9, 10-H]oleic acid and exogenous cholesterol contained in the liposome which was reconstituted according to the method disclosed in the literature: Biochimica et Biophysica Acta, 1213, 127-134, 1994, and calculated from the radioactivity of the labeled cholesterolyl oleate.

CCCCn1c(=O)c(NC(=O)Nc2c(C(C)C)cccc2C(C)C)c(-c2cccc(C#CCN3CCCC3)c2)c2cccnc21 [Example 90, N-[1-butyl-4-[3-{3-(1-pyrrolidinyl)-1-propynyl)phenyl}-1,2-dihydro-2-oxo-1,8-naphthyridin-3-yl)-N'-(2,6-diisopropylphenyl)urea]
ACAT inhibitory rate (%) 10^-7 M [1]: 39%
inhibition at 0.1 µM [2]: 96%
